Common to all, as to type: cell-based
In test [1] the test system is bacterial mix: Escherichia coli DSM 1576, Alcaligenes faecalis DSM 13644, Pseudomonas aeruginosa ATCC 15442, Staphylococcus aureus ATCC 6538, Burkholderia …. Nature of the test: Preservative activity of a basic composition (10% PG in water, pH 7) with 1,2-benzisothiazol-3(2H)-one (BIT) against bacterial contamination (Example 2.3). The following applies: 10% PG + 0.004% BIT, no amide (Comparative 2); day 7. The protocol:
(§1) An aqueous composition of pH 7 comprising 10% by weight of propyleneglycol (PG) as organic solvent, 0.004% by weight of 1,2-benzisothiazol-3(2H)-one (BIT) as antimicrobial and 0.04% by weight of the amide listed in the below table was tested for its preserving activity against bacterial contamination (the percentages are weight percent and relate to the total weight of the composition). For this purpose, the samples were contaminated with a bacterial mix consisting of: • Escherichia coli DSM 1576 • Alcaligenes faecalis DSM 13644 • Pseudomonas aeruginosa ATCC 15442 • Staphylococcus aureus ATCC 6538 • Burkholderia cepacia DSM 7288 • Pseudomonas putida DSM 12735
(§2) The samples were inoculated with the bacterial mix at day 0 to obtain 10E+06 to 10E+07 CFU/ml inoculation in the test sample and stored at 25° C. for 7 days.
(§3) CFU was determined at day 7.
Any CFU value at day 7 (d7) obtained with a sample according to the invention containing BIT and amide (10% PG+0.004% BIT+Amide in water) lower than the respective value of the “comparative 2” example (10% by weight of propyleneglycol+0.004% by weight of 1,2-benzisothiazol-3(2H)-one (BIT) in water) indicates a better performance.

For test [2] the test system is unchanged. Nature of the test: Preservative activity in a manual dishwashing composition (MDW, pH 7.1) with 1.0% 2-phenoxyethanol against bacterial mix (Example 2.5). The following applies: MDW + 1.0% PE + 1.0% amide. The protocol: A manual dish wash detergent (MOW) of pH 7.1 containing the following components was used:
The samples were contaminated with a bacterial mix consisting of: • Escherichia coli DSM 1576 • Alcaligenes faecalis DSM 13644 • Pseudomonas aeruginosa ATCC 15442 • Staphylococcus aureus ATCC 6538 • Burkholderia cepacia DSM 7288 • Pseudomonas putida DSM 12735
The samples were inoculated with the bacterial mix at day 0 and 7 to obtain 10E+06 to 10E+07 CFU/ml inoculation in the test sample and stored at 25° C. for 21 days. CFU was determined before re-inoculation at day 7 and on day 21.
Any CFU value at day 7 (d7) or day 21 (d21) obtained with a sample according to the invention containing 2-phenoxyethanol and amide (MDW+1.0% PE+1.0% Amide) lower than the respective value of the comparative example (MDW+1% by weight of 2-phenoxyethanol) indicates a better performance.

The test system of test [3] is fungal mix (including yeasts and molds): Aspergillus brasiliensis DSM 1988, Rhodotorula mucilaginosa DSM 13621, Yarrowia lipolytica DSM 8218. In words: Preservative activity of a basic composition (10% PG in water, pH 7) with 2-phenoxyethanol against fungal contamination (Example 1.1). The following applies: 10% PG + 0.36% PE + 0.04% Amide in water, pH 7, 25° C. The protocol: An aqueous composition of pH 7 comprising 10% by weight of propyleneglycol (PG) as organic solvent, 0.36% by weight of 2-phenoxyethanol (PE) as antimicrobial and 0.04% by weight of the amide listed in the below table was tested for its preserving activity against fungal contamination (the percentages are weight percent and relate to the total weight of the composition). For this purpose, the samples were contaminated with a fungal mix (including yeasts and molds) consisting of: • Aspergillus brasiliensis DS M 1988 • Rhodotorula mucilaginosa DSM 13621 • Yarrowia lipolytica DS M 8218
To control the efficacy, following control compositions were tested: • “Reference”, consisting of only 10% by weight of propylene glycol in water • “Comparative 1” containing 10% by weight of propylene glycol and amide in the given concentration, but no 2-phenoxyethanol • […] in the given concentration, but no amide.
The samples were inoculated with the fungal mix at day 0, 7 and 14 to obtain a cell density in the range of 1-3×10E+05 CFU/ml (CFU=colony forming units) in the test samples (compositions listed in the below table) and stored at 25° C. for 21 days.
(§4) CFU was determined before re-inoculation at days 7 and 14, and on day 21.

In test [4] the test system is fungal mix: Aspergillus brasiliensis DSM 1988, Rhodotorula mucilaginosa DSM 13621, Yarrowia lipolytica DSM 8218. In words: Preservative activity in a manual dishwashing composition (MDW, pH 7.1) with 1.0% 2-phenoxyethanol against fungal mix (Example 1.2). The following applies: MDW + 1.0% PE + 1.0% amide. The protocol:
A manual dish wash detergent (MDW) of pH 7.1 containing the following components was used:
The samples were contaminated with a fungal mix consisting of: • Aspergillus brasiliensis DSM 1988 • Rhodotorula mucilaginosa DSM 13621 • Yarrowia lipolytica DSM 8218
The samples were inoculated with the fungal mix at day 0 and 7 to obtain 1-3×10E+05 CFU/ml inoculation in the test sample consisting of the above-defined dish wash detergent MDW and stored at 25° C. for 21 days. CFU was determined before re-inoculation at day 7, and on days 14 and 21.
Any CFU value at d7, d14 or d21 obtained with a MDW sample of the invention containing 2-phenoxyethanol and amide (MDW+1.0% PE+x % of Amide) lower than the respective value of the comparative example (MDW+1.0% by weight of 2-phenoxyethanol) indicates a better performance of the inventive combination of 2-phenoxyethanol with the amide.

The test system of test [5] is bacterial mix: Escherichia coli DSM 1576, Alcaligenes faecalis DSM 13644, Pseudomonas aeuginosa ATCC 15442, Staphylococcus aureus ATCC 6538, Burkholderia …. Nature of the test: Preservative activity of a basic composition (10% PG in water, pH 7) with 2-phenoxyethanol against bacterial contamination (Example 2.1). The following applies: 10% PG + 0.36% PE + 0.04% amide. The procedure: as §1, with “0.36%” for “0.004%”, “2-phenoxyethanol (PE)” for “1,2-benzisothiazol-3(2H)-one (BIT)”, “(the weight” for “(the”, “percentages” for “percentages are weight percent and”, “aeuginosa” for “aeruginosa”
The samples were inoculated with the bacterial mix at day 0, 7 and 14 to obtain 10E+06 to 10E+07 CFU/ml inoculation in the test samples (compositions listed in the below table) consisting of 10% by weight of propylene glycol in water and stored at 25° C. for 21 days.
as §4

The test system of test [6] is bacterial mix: Escherichia coli DSM 1576, Alcaligenes faecalis DSM 13644, Pseudomonas aeruginosa ATCC 15442, Staphylococcus aureus ATCC 6538, Burkholderia …. Nature of the test: Preservative activity of a basic composition (10% PG in water, pH 7) with 4,4'-dichloro-2-hydroxydiphenyl ether (diclosan) against bacterial contamination (Example 2.2). The following applies: day 7. The protocol: as §1, with “0.015%” for “0.004%”, “4,4′-dichloro-2-hydroxydiphenyl ether (diclosan)” for “1,2-benzisothiazol-3(2H)-one (BIT)”, “0.04 or 0.1%” for “0.04%”, “amides” for “amide”, “(the weight” for “(the”, “percentages” for “percentages are weight percent and”
as §2, §3
Any CFU value at day 7 (d7) obtained with a sample according to the invention containing diclosan and amide (10% PG+0.015% diclosan+Amide in water) lower than the respective value of the “comparative 3” example (10% by weight of propyleneglycol+0.015% by weight of 4,4′-dichloro-2-hydroxydiphenyl ether (diclosan) in water) indicates a better performance.

Molecules are shown by their SMILES.

On to `O=c1[nH]sc2ccccc12` [BIT, 1,2-benzisothiazol-3(2H)-one, reference compound], for which, in test [1], the “d7 [CFU/ml]” value is reported as >100,000 CFU/ml.
In the case of `C=CCCCCCCCC(=O)N(C)C` [N,N-dimethyl 9-decenoylamide], the “d7 [CFU/ml]” value in test [2] (day 7) was <10 CFU/ml. Moreover, in test [2] (day 21), the “d21 [CFU/ml]” value was <10 CFU/ml.
In the case of `CCCCCCCCCC(=O)N1CCOCC1` [n-Decanoyl-morpholine], the “d7 [CFU/ml]” value in test [3] (fungal mix inoculated at day 0, 7 and 14 (1-3x10E+05 CFU/ml), day 7 before re-inoculation) was 55 CFU/ml; in test [4] (day 7), 1,200 CFU/ml; in test [5] (day 7), <10 CFU/ml; in test [6] (10% PG + 0.015% diclosan + 0.04% amide), 41,500 CFU/ml; in test [6] (10% PG + 0.04% amide, no diclosan (Comparative 1a)), >100,000 CFU/ml. Also, the “d14 [CFU/ml]” value is <10 CFU/ml in test [3] (fungal mix inoculated at day 0, 7 and 14, day 14 before re-inoculation); 305 CFU/ml in test [4] (day 14); 30 CFU/ml in test [5] (day 14). For the same compound, the “d21 [CFU/ml]” value in test [3] (fungal mix inoculated at day 0, 7 and 14, day 21) is 35 CFU/ml; in test [4] (day 21), 245 CFU/ml; in test [5] (day 21), 190 CFU/ml.

Source of the values: patent US20250040539A1, “COMPOSITION COMPRISING AN ANTIMICROBIAL AGENT AND A CARBOXAMIDE” (BASF SE, priority 2021, published 2025).
